This passage reports IC50 and EC50 results from patent US12312359B2 (Vitae Pharmaceuticals, LLC, priority 2016, dated 2025).

One may read the IC50 as the midpoint of a concentration-inhibition curve. By EC50 is commonly meant the concentration that produces a half-maximal response. A low value points to greater potency.

Experiment [1] addresses T1, biotinylated wild-type menin and MLL-AF9 fusion protein (menin/MLL binding) (Homo sapiens, UniProt O00255).
T1 construct: made in house; host or cells: menin: E. coli; MLL-AF9-FLAG: HEK293 cells, used as cleared lysate
T1 sequence (O00255 1-610): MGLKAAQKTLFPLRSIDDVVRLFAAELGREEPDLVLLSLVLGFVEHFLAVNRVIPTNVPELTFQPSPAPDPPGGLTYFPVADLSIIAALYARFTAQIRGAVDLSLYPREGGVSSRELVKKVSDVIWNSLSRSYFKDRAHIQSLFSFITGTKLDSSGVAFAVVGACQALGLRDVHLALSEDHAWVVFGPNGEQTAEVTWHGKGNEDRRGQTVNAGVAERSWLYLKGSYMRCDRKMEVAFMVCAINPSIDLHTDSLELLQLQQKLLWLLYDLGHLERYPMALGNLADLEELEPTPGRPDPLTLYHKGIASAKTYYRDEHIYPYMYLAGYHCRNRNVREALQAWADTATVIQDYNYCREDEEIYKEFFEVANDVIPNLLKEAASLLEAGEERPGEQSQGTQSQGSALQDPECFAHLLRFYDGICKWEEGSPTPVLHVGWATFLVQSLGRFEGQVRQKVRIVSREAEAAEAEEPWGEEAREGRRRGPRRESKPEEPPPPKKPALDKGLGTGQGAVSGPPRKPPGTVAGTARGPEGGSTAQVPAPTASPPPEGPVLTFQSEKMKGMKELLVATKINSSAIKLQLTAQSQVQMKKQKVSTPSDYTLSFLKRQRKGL
The experiment is described as follows: Assay 1: menin/MLL binding AlphaLISA assay, wild-type menin. To be noted: Table 30; column head does not say wild-type or mutated menin. In a few lines: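 Compound was preincubated 30 min at room temperature with biotinylated menin (5 nM) and MLL-AF9-FLAG lysate from HEK293 cells, pH 7.4 buffer with 5% DMSO and DTT. Bead-based Alpha signal after 60 min with streptavidin donor and anti-FLAG acceptor beads; four-parameter logistic fit gave IC50.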
A general note: Alpha assays give light when donor and acceptor beads are brought close together.

The test system of experiment [2] is human acute monocytic leukemia cell line MV-4-11. Briefly: Assay 2: cell proliferation assay (ATP quantitation, CellTiter-Glo), MV-4-11. The experiment is classed as cell-based. To be noted: Homo sapiens, MV4-11, 72 h, MV-4-11 cells. Put shortly: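 MV-4-11 cells, 1.67×10^4 per well in medium with 10% FBS, were exposed to compound for 72 h at 37° C., 5% CO2; HL-60 cells served as toxicity control. Proliferation read as ATP content by CellTiter-Glo luminescence.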
On the technique in general: ATP-based viability assays read luminescence as a measure of living cells.

The compound `CC(C)c1ncncc1-c1cc(F)ccc1Oc1cncnc1N1CC2(CN(C(=O)Cc3ccc(C#N)cc3)C2)C1` [Example 227, 4-(2-(6-(5-(4-fluoro-2-(4-isopropylpyrimidin-5-yl)phenoxy)pyrimidin-4-yl)-2,6-diazaspiro[3.3]heptan-2-yl)-2-oxoethyl)benzonitrile] registered an IC50 in experiment [1] below 100 nM. Also, the EC50 in experiment [2] is below 100 nM.
The compound `CC(C)c1ccccc1-c1cc(F)ccc1Oc1cncnc1N1CC2(CN(C(=O)Cc3ccc(C#N)cc3)C2)C1` [Example 228, 4-(2-(6-(5-((5-fluoro-2′-isopropyl-[1,1′-biphenyl]-2-yl)oxy)pyrimidin-4-yl)-2,6-diazaspiro[3.3]heptan-2-yl)-2-oxoethyl)benzonitrile] came in with an IC50 in experiment [1] below 100 nM. The same compound registered an EC50 in experiment [2] of 100 to 1000 nM.
The matching figures for `CC(C)c1ccccc1-c1cc(F)ccc1Oc1cncnc1N1CC2(CN(C(=O)Cc3ccc(S(C)(=O)=O)cc3)C2)C1` [Example 229, 1-(6-(5-((5-fluoro-2′-isopropyl-[1,1′-biphenyl]-2-yl)oxy)pyrimidin-4-yl)-2,6-diazaspiro[3.3]heptan-2-yl)-2-(4-(methylsulfonyl)phenyl)ethan-1-one]: below 100 nM and 100 to 1000 nM.
On to `Cc1c(C#N)cccc1-c1cc(F)ccc1Oc1cncnc1N1CCC2(CCN(Cc3ccc4[nH]c(=O)[nH]c4c3)C2)C1` (stereo not shown) [Example 230, 5′-fluoro-2-methyl-2′-((4-(7-((2-oxo-2,3-dihydro-1H-benzo[d]imidazol-5-yl)methyl)-2,7-diazaspiro[4.4]nonan-2-yl)pyrimidin-5-yl)oxy)-[1,1′-biphenyl]-3-carbonitrile], for which the IC50 in experiment [1] was below 100 nM. In experiment [2], this compound had an EC50 of 100 to 1000 nM.
Taken in the same sequence, the figures for `CC(C)n1nccc1-c1cc(F)ccc1Oc1cncnc1N1CC2(CN(CC3CCCC(F)(F)C3)C2)C1` (stereo not shown) [Example 231, 2-((3,3-difluorocyclohexyl)methyl)-6-(5-(4-fluoro-2-(1-isopropyl-1H-pyrazol-5-yl)phenoxy)pyrimidin-4-yl)-2,6-diazaspiro[3.3] heptane] were below 100 nM and 100 to 1000 nM.
The matching figures for `CC(C)c1ncncc1-c1cc(F)ccc1Oc1cncnc1N1CC2(CN(CC3CCCC(F)(F)C3)C2)C1` (stereo not shown) [Example 232, 2-((3,3-difluorocyclohexyl)methyl)-6-(5-(4-fluoro-2-(4-isopropylpyrimidin-5-yl)phenoxy)pyrimidin-4-yl)-2,6-diazaspiro[3.3] heptane]: below 100 nM and below 100 nM.
Take `CC(C)n1nccc1-c1cc(F)ccc1Oc1cncnc1N1CC2(CC(NCc3ccc(C#N)cc3)CO2)C1` (stereo not shown) [Example 233, 4-(((2-(5-(4-fluoro-2-(1-isopropyl-1H-pyrazol-5-yl)phenoxy)pyrimidin-4-yl)-5-oxa-2-azaspiro[3.4]octan-7-yl)amino)methyl) benzonitrile]: the IC50 in experiment [1] was below 100 nM. Besides, in experiment [2], the EC50 lay in the range of 100 to 1000 nM.
On to `CCc1ncccc1-c1cc(F)ccc1Oc1cncnc1N1CCC2(CCN(Cc3ccc4[nH]c(=O)[nH]c4c3)C2)C1` (stereo not shown) [Example 234, 5-((7-(5-(2-(2-ethylpyridin-3-yl)-4-fluorophenoxy)pyrimidin-4-yl)-2,7-diazaspiro [4.4]nonan-2-yl)methyl)-1,3-dihydro-2H-benzo[d]imidazol-2-one], for which the IC50 in experiment [1] is below 100 nM. Besides, the EC50 in experiment [2] was below 100 nM.
Regarding `CC(C)CCc1cc(F)ccc1Oc1cncnc1N1CCC2(CCN(Cc3ccc4[nH]c(=O)[nH]c4c3)C2)C1` (stereo not shown) [Example 235, 5-((7-(5-(4-fluoro-2-isopentylphenoxy)pyrimidin-4-yl)-2,7-diazaspiro[4.4]nonan-2-yl)methyl)-1,3-dihydro-2H-benzo[d]imidazol-2-one], the half-inhibitory concentration (IC50) in experiment [1] is below 100 nM. The compound also gave an EC50 in experiment [2] of 100 to 1000 nM.
Compound `CC(C)Cc1cc(F)ccc1Oc1cncnc1N1CCC2(CCN(Cc3ccc4[nH]c(=O)[nH]c4c3)C2)C1` (stereo not shown) [Example 236, 5-((7-(5-(4-fluoro-2-isobutylphenoxy)pyrimidin-4-yl)-2,7-diazaspiro[4.4]nonan-2-yl)methyl)-1,3-dihydro-2H-benzo[d]imidazol-2-one] gave an IC50 in experiment [1] below 100 nM. In experiment [2], this compound returned an EC50 of 100 to 1000 nM.
As for `CC(C)n1nccc1-c1cc(F)ccc1Oc1cncnc1N1CCC2(CCN(Cc3ccc4[nH]c(=O)[nH]c4c3)C2)C1` (stereo not shown) [Example 237, 5-((7-(5-(4-fluoro-2-(1-isopropyl-1H-pyrazol-5-yl)phenoxy)pyrimidin-4-yl)-2,7-diazaspiro[4.4]nonan-2-yl)methyl)-1,3-dihydro-2H-benzo[d]imidazol-2-one], in experiment [1], the IC50 was below 100 nM. Further, the EC50 in experiment [2] is below 100 nM.
On to `CC(C)c1ccccc1-c1cc(F)ccc1Oc1cncnc1N1CC2(CN(CC3CCOCC3)C2)C1` [Example 237A, 2-(5-((5-fluoro-2′-isopropyl-[1,1′-biphenyl]-2-yl)oxy)pyrimidin-4-yl)-6-((tetrahydro-2H-pyran-4-yl)methyl)-2,6-diazaspiro[3.3] heptane], for which the IC50 in experiment [1] is below 100 nM. The same compound displayed an EC50 in experiment [2] below 100 nM.
`CCN(C(=O)c1cc(F)ccc1Oc1cncnc1N1CC2(CCN(C[C@H]3CC[C@H](NS(C)(=O)=O)CC3)CC2)C1)C(C)C` [Example 238, N-ethyl-5-fluoro-N-isopropyl-2-((4-(7-(((1r,4r)-4-(methylsulfonamido)cyclohexyl)methyl)-2,7-diazaspiro[3.5]nonan-2-yl)pyrimidin-5-yl)oxy)benzamide]: the IC50 in experiment [1] is below 100 nM. The compound further had an EC50 in experiment [2] below 100 nM.
Consider `CC(C)N(C(=O)c1cc(F)ccc1Oc1cncnc1N1CC2(CC(NC3CCOCC3)C2)C1)C(C)C` [Example 239, 5-fluoro-N,N-diisopropyl-2-((4-(6-((tetrahydro-2H-pyran-4-yl)amino)-2-azaspiro[3.3]heptan-2-yl)pyrimidin-5-yl)oxy)benzamide], for which the IC50 in experiment [1] is below 100 nM. Also, in experiment [2], the EC50 was below 100 nM.
For `CC(C)N(C(=O)c1cc(F)ccc1Oc1cncnc1N1CC2(CC(N(C)C3CCOCC3)C2)C1)C(C)C` [Example 240, 5-fluoro-N,N-diisopropyl-2-((4-(6-(methyl(tetrahydro-2H-pyran-4-yl)amino)-2-azaspiro[3.3]heptan-2-yl)pyrimidin-5-yl)oxy)benzamide], the IC50 in experiment [1] is below 100 nM. Besides, the EC50 in experiment [2] is below 100 nM.
`CC(C)N(C(=O)c1cc(F)ccc1Nc1cncnc1N1CCC2(CC1)CN(C[C@H]1CC[C@H](NC(=O)OC(C)(C)C)CC1)C2)C(C)C` [Example 241, tert-butyl ((1r,4r)-4-((7-(5-((2-(diisopropylcarbamoyl)-4-fluorophenyl)amino)pyrimidin-4-yl)-2,7-diazaspiro [3.5]nonan-2-yl)methyl)cyclohexyl) carbamate] returned an IC50 in experiment [1] below 100 nM. The same compound registered an EC50 in experiment [2] of 100 to 1000 nM.
Taken in the same sequence, the figures for `CC(C)c1ccccc1-c1cc(F)ccc1Nc1cncnc1N1CC2(CN(CC3(O)CCCCC3)C2)C1` [Example 242, 1-((6-(5-((5-fluoro-2′-isopropyl-[1,1′-biphenyl]-2-yl)amino)pyrimidin-4-yl)-2,6-diazaspiro [3.3]heptan-2-yl)methyl) cyclohexan-1-ol] were below 100 nM and 100 to 1000 nM.
The compound `CC(C)c1ccccc1-c1cc(F)ccc1Oc1cnccc1N1CCC2(CCN(Cc3ccc4[nH]c(=O)[nH]c4c3)C2)C1` (stereo not shown) [Example 249, 5-((7-(3-((5-fluoro-2′-isopropyl-[1,1′-biphenyl]-2-yl)oxy)pyridin-4-yl)-2,7-diazaspiro[4.4]nonan-2-yl)methyl)-1,3-dihydro-2H-benzo[d]imidazol-2-one] came in with an IC50 in experiment [1] below 100 nM. Also, the half-maximal effective concentration (EC50) in experiment [2] fell in the range of 100 to 1000 nM.
As to `CC(=O)Nc1ccc(CN2C(=O)C3(CCN(c4ncncc4Oc4ccc(F)cc4C(=O)N(C)C(C)C)C3)N=C2N)cc1` (stereo not shown) [Example 251, 2-((4-(3-(4-acetamidobenzyl)-2-amino-4-oxo-1,3,7-triazaspiro[4.4]non-1-en-7-yl)pyrimidin-5-yl)oxy)-5-fluoro-N-isopropyl-N-methylbenzamide], the IC50 in experiment [1] was below 100 nM. In experiment [2], this compound gave an EC50 of at least 1000 nM.
The matching figures for `CCN(C(=O)c1cc(F)ccc1Oc1cncnc1N1CC2(CCN(C[C@H]3CC[C@H](NS(=O)(=O)CC)CC3)CC2)C1)C(C)C` [Example 252, N-Ethyl-2-((4-(7-(((1r,4r)-4-(ethylsulfonamido)cyclohexyl)methyl)-2,7-diazaspiro[3.5]nonan-2-yl)pyrimidin-5-yl)oxy)-5-fluoro-N-isopropylbenzamide]: below 100 nM and below 100 nM.
